Reference: PMC9921063 (Molecules, 2023)
≈ marks a conversion by molar mass, not a printed value.

Legend:
[1] = ABTS radical scavenging assay; details: antiradical scavenging; mean ± S.D.
Protocol: (§1) Three methods were used for the assessing antioxidant properties of the selected compounds, which are 2.2-diphenyl-1-picrylhydrazyl (DPPH), 2.2’-azino-bis (3-ethylbenzothiazoline-6-sulphonic acid) (ABTS) radicals scavenging, and β-carotene linoleic acid bleaching assay. […] The control compound was butylated hydroxytoluene (BHT), which is a potent antioxidant.
ABTS radical scavenging activity was conducted by referring to the method of Re et al..
(§2) All the assays used for antioxidant determination (DPPH, ABTS, and β-carotene bleaching assay) were performed simultaneously three times in the same conditions. The results obtained in µM mL^−1 average of the three experiments.

[2] = β-Carotene linoleic acid bleaching assay; details: β-carotene bleaching test; mean ± S.D.
Protocol: as §1
β-Carotene bleaching test was conducted following the method described by Pratt’s.
as §2

[3] = test system: colon carcinoma cells (HCT-116); assay: In vitro anticancer proliferation (cytotoxicity) assay; type: cell-based, human; details: for IC50 HCT-116: mean ± S.D.; for IC50: Homo sapiens, HCT-116, mean ± S.D.
Protocol: (§3) The selected compound was investigated for its cytotoxic properties against HCT-116 and HepG-2 (cancer cell lines of ATCC, Rockville, MD, USA). Vinblastine was applied as reference drug. The assay was conducted according to the methods described by Mossman and our recently published data.

[4] = test system: hepatocellular carcinoma cell lines (HepG-2); assay: as above; type: cell-based, human; details: hepatocellular carcinoma cells, mean ± S.D.; for IC50: Homo sapiens, HepG2
Protocol: as §3

L. major amastigotes = assay: Antileishmanial assay, amastigotes; type: cell-based, Leishmania major; details: mean ± S.D.; for IC50: Leishmania major, read-out: Amastigote IC50
Protocol: (§4) This assay was carried out according to the methods mentioned in our previously published article. L. major promastigotes were isolated locally from an indoor patient in 2016, liquid nitrogen was used for the preservation of the parasites, and BALB/c mice were used for the maintenance of the parasites and production of L. major amastigotes. Phenol red-free RPMI 1640 medium (Invitrogen, USA) with 10% FBS was used for the culture and in vitro evaluation, while amphotericin B (AmB) was used as reference drug.

TyrE = TyrE (Agaricus bisporus, UniProt C7FF04); type: biochemical
TyrE, sequence (C7FF04 1-392): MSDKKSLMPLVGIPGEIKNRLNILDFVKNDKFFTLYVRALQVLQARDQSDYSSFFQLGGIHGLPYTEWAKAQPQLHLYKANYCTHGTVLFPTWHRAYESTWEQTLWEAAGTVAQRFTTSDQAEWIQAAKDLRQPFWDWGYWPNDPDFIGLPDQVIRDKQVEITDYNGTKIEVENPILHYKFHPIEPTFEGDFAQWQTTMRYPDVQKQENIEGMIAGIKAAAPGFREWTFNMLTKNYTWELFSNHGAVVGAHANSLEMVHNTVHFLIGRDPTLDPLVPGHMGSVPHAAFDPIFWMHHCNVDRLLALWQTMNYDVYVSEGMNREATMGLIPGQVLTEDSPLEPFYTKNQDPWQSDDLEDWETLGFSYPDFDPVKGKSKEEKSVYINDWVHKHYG

L. major promastigotes = assay: Antileishmanial assay, promastigotes; type: cell-based, Leishmania major; details: mean ± S.D.; for IC50: Leishmania major
Protocol: as §4

[5] = test system: T. gondii tachyzoites RH strain; assay: Antitoxoplasmal assay; type: cell-based, Toxoplasma gondii; details: mean ± S.D.; for IC50: Toxoplasma gondii
Protocol: This assay was carried out according to the methods mentioned in our previously published article. Vero cells line (ATCC® CCL81™, USA) were used for the serial passage and cultivation of T. gondii tachyzoites RH strain, complete RPMI 1640 medium with heat-inactivated 10% FBS was used for the culture and in vitro evaluation, while atovaquone (ATO) was used as reference drug. The results were expressed in IC50 of three independent readings, followed by the selectivity index (SI) calculation by dividing CC50 over IC50 of the same compound [56].

[6] = DPPH radical scavenging activity; details: antiradical scavenging; mean ± S.D.
Protocol: as §1
Briefly, various amounts of produced compounds were diluted with ultrapure water after being dissolved in dimethylsulfoxide (DMSO)/water (1/9; v/v) (1, 0.5, 0.250, 0.125, 0.0625, 0.03125 mg mL^−1). The samples were then combined with […] of a 4% (w/v) solution of the DPPH radical in ethanol. The combination was incubated for 30 min. at room temperature and in the dark. Spectrophotometric analysis was used to calculate the scavenging capacity by comparing the decrease in absorbance at 517 nm to a blank.
as §2

Vero cell = assay: In vitro cytotoxicity assay, MTT; type: cell-based; details: mean ± S.D.
Protocol: (§5) MTT colorimetric technique was carried out for cytotoxicity evaluation according to the methods mentioned in our previously published article. An amount of 96 well plates with complete were used for the culture of the cells. FLUOstar OPTIMA spectrophotometer was applied for colorimetric analysis and in vitro evaluation.

[7] = test system: all examined microorganisms; assay: Antimicrobial activity, summary over all examined microorganisms; type: cell-based; details: all of the examined indicator organisms
Protocol: (§6) Microorganisms, media and growth conditions, agar well diffusion method for inhibition zone determination (IZ) and minimum inhibitory concentration (MIC) were performed according to the literature work.
(§7) The synthesized compounds were examined in vitro for their antimicrobial activity against Six standard microorganisms of ATCC, two Gram positive bacteria S. aureus and Listeria monocytogenes, three Gram negative bacteria Esherichia coli, Pseudomonas aeruginosa and Salmonella typhimurium and the fungus C. albicans. Bacteria were cultured in Luria-Bertani (LB) medium, while Sabouraud agar was used for culturing C. albicans and the assay conducted according to our previous techniques. The results were the average of 3 readings.

L. monocytogenes = assay: Minimum inhibitory concentration (MIC); type: cell-based, Listeria monocytogenes
Protocol: as §6, §7

S. typhimurium = assay: Minimum inhibitory concentration (MIC); type: cell-based, Salmonella typhimurium
Protocol: as §6, §7

C. albicans = assay: Minimum inhibitory concentration (MIC); type: cell-based
Protocol: as §6, §7

S. aureus = assay: Minimum inhibitory concentration (MIC); type: cell-based
Protocol: as §6, §7

electric eel AChE = electric eel AChE (Electrophorus electricus, UniProt O42275); assay: biochemical; type: biochemical; details: mean ± S.D.; for IC50: read-out: AChEI IC50 (converted)
electric eel AChE, sequence (O42275 24-633): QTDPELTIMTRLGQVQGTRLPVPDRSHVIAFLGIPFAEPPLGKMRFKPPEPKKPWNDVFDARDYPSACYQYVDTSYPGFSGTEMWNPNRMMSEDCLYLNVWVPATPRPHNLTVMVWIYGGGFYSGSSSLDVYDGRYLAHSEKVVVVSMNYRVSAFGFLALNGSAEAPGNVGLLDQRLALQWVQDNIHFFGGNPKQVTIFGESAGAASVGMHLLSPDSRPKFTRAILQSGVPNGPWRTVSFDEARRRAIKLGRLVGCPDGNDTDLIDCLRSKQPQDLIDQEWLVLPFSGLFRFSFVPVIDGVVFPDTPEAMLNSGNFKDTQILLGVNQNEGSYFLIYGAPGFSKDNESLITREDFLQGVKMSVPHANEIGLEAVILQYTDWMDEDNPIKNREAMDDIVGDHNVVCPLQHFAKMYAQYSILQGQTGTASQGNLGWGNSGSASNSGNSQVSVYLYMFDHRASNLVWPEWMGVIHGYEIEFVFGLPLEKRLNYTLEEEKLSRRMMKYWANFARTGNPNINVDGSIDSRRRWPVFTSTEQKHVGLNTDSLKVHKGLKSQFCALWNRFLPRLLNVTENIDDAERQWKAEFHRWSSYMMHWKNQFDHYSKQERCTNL
Protocol: According to the Ellman et al. published spectrophotometric method of electric eel AChE [47], AChEI activity was measured. Acetylthiocholine iodide (ATCI) was used as the reaction’s substrate, and the antiacetylcholinesterase activity was measured using 5,5’-Dithiobis-(2-nitrobenzoic acid) (DTNB).

[8] = In vitro cytotoxicity assay, MTT; type: cell-based; details: African green monkey, Vero cells, mean ± S.D., read-out: CC50 Toxicity (Vero Cell)
Protocol: as §5

Row | Compound | ABTS IC50 [1] [µM mL^−1] | β-Carotene IC50 [2] [µM mL^−1] | IC50 HCT-116 [3] [µM mL^−1] | IC50 HepG-2 [4] [µM mL^−1] | Amastigote IC50 (L. major amastigotes) [µM mL^−1] | TyrEI IC50 (TyrE) [µM mL^−1] | Promastigotes IC50 (L. major promastigotes) [µM mL^−1] | Toxoplasma IC50 [5] [µM mL^−1] | DPPH IC50 [6] [µM mL^−1] | CC50 Toxicity (Vero Cell) (Vero cell) [µM mL^−1] | IC50 [3] [µg/mL] | IC50 [4] [µg/mL] | also measured
1 | 5,6-Dimethyl-[1,3-(2,3,4,5,6-pentamethyl-2,4,6-trimethyl)-benzimidazol-2-ylidene](p-cymene) ruthenium(II) chloride [Compound 3a] | 41.78 ± 7.3 | 401.12 ± 66.5 | 4.12 ± 0.6 | 9.21 ± 1.3 | 2.4 ± 0.4 | 50.75 ± 8.3 | 0.45 ± 0.07 | 1.3 ± 0.2 | 61.25 ± 10.3 | 1.2 ± 0.3 | – | – | –
2 | 5,6-Dimethyl-[1,3-(2,3,4,5,6-pentamethyl-2,4,6-trimethyl)-benzimidazol-2-ylidene](p-cymene) ruthenium(II) chloride [Compound 3b] | 32.05 ± 4.2 | 225.45 ± 31.5 | 19.45 ± 3.2 | 31.40 ± 4.8 | 1.1 ± 0.2 | 19.88 ± 2.4 | 0.74 ± 0.08 | 1.4 ± 0.2 | 43.05 ± 5.7 | 1.3 ± 0.3 | – | – | Inhibition of the examined indicator organisms [7]: inhibited; MIC (L. monocytogenes): 15.6 µM mL^−1; MIC (S. typhimurium): 3.9 µM mL^−1; MIC (C. albicans): 1.25 µM mL^−1; MIC (S. aureus): 3.9 µM mL^−1
3 | 5,6-Dimethyl-[1,3-(4-(tert-butyl)-4-methyl)-benzimidazol-2-ylidene] (p-cymene) ruthenium (II) chloride [Compound 3c] | 45.04 ± 6.6 | 374.87 ± 55.7 | 8.45 ± 1.2 | 12.73 ± 1.8 | 4.2 ± 0.8 | 38.17 ± 5.5 | 0.37 ± 0.06 | 1.5 ± 0.3 | 65.49 ± 11.2 | 1.9 ± 0.4 | – | – | –
4 | 5,6-dimethyl-1,3-(3,5)-dimethyl-4-methylbenzyl)-2,3-dihydro-1H-benzo[d]imidazolium bromide [Compound 2d] | 55.21 ± 7.4 | 360.90 ± 40.8 | 16.04 ± 2.9 | 26.82 ± 3.6 | 1.4 ± 0.2 | 43.25 ± 6.8 | 1.9 ± 0.3 | 3.8 ± 0.5 | 74.25 ± 11.6 | 1.7 ± 0.3 | – | – | AChEI IC50 (electric eel AChE): 22.27 ± 3.1 µM mL^−1
5 | 5,6-dimethyl-1,3-bis(2,3,4,5,6-pentamethylbenzyl)-1H-benzo[d]imidazol-3-ium bromide [Compound 2a] | 39.12 ± 5.9 | 395.75 ± 51.6 | 7.76 ± 1.1 | 11.75 ± 2.1 | 1.1 ± 0.1 | 45.05 ± 7.3 | 3.2 ± 0.5 | 8.4 ± 1.0 | 58.27 ± 7.4 | 1.2 ± 0.2 | – | – | AChEI IC50 (electric eel AChE): 18.38 ± 2.7 µM mL^−1
6 | Cc1cc(C(C)(C)C)c(O)c(C(C)(C)C)c1 [BHT, butylated hydroxytoluene, reference compound] | 17.41 ± 2.9 | 89.55 ± 13.3 | – | – | – | – | – | – | 31.55 ± 4.8 | – | – | – | –
7 | Cc1cc(C)c(Cn2c[n+](Cc3c(C)cc(C)cc3C)c3cc(C)c(C)cc32)c(C)c1.[Br-] [Compound 2b, 5,6-dimethyl-1,3-bis(2,4,6-trimethylbenzyl)-1H-benzo[d]imidazol-3-ium bromide] | 38.14 ± 4.9 | 325.55 ± 48.7 | – | – | – | – | – | – | 63.45 ± 10.1 | – | 13.6 ± 2 | 17.4 ± 2.7 | IC50 (L. major amastigotes): 0.3 ± 0.04 µg/mL; IC50 (electric eel AChE): 27.3 µM; IC50 (L. major promastigotes): 2.2 ± 0.3 µg/mL; IC50 [5]: 3.7 ± 0.5 µg/mL; CC50 [8]: 1.1 ± 0.1 µg/mL
8 | Cc1ccc(C[n+]2cn(Cc3ccc(C(C)(C)C)cc3)c3cc(C)c(C)cc32)cc1 [Compound 2c, 5,6-dimethyl-1,3-((4-(tert-butyl)-4-methyl-benzyl)-1H-benzo[d]imidazol-3-ium bromide] | 51.27 ± 8.6 | 348.70 ± 52.1 | – | – | – | – | – | – | 70.23 ± 12.0 | – | 15.4 ± 2.6 | 20.6 ± 3.3 | IC50 (L. major amastigotes): 1.7 ± 0.2 µg/mL; IC50 (electric eel AChE): 51.6 µM; IC50 (L. major promastigotes): 5.8 ± 0.9 µg/mL; IC50 [5]: 2.1 ± 0.3 µg/mL; CC50 [8]: 2.9 ± 0.4 µg/mL
9 | CC[C@]1(O)C[C@@H]2CN(CCc3c([nH]c4ccccc34)[C@@](C(=O)OC)(c3cc4c(cc3OC)N(C)[C@H]3[C@@](O)(C(=O)OC)[C@H](OC(C)=O)[C@]5(CC)C=CCN6CC[C@]43[C@@H]65)C2)C1 [vinblastine, reference compound] | – | – | – | – | – | – | – | – | – | – | 3.83 (≈ 4.72 µM) | 6.05 (≈ 7.46 µM) | –
